Consider 2 compounds from patent publication US20240309014A1, “MACROCYCLIC COMPOUNDS AND USES THEREOF” (President and Fellows of Harvard College, priority 2017, published 2024).

In assay [1] the test system is FaDu-Luc subcutaneous xenograft. As to the kind of experiment: FaDu s.c. xenograft model in combination with radiation. The assay is classed as in vivo, nude mice. The protocol: Luciferase-transduced FaDu-Luc cells were established by retrovirus-mediated gene transfer. […]. Then, helper-free recombinant retroviruses were produced by transfecting the above retroviral expression vector together with pGP and pE-Ampho plasmids (Takara Bio; Shiga, Japan), into 293T cells (ATCC; Manassas, USA). Next, FaDu cells were infected with the recombinant retroviruses, and were cultured for two weeks in the presence of puromycin (2 μg/mL). The infected cells were selected from a polyclonal proliferative population of the culture.
A luciferase-transduced human SCCHN cell line FaDu-Luc, which had been cultured in an RPMI-1640 medium containing 10% FBS, and penicillin and streptomycin, was adjusted to a concentration of 5×10^7 cells/mL with Hank's Balanced Salt Solution to prepare a cell suspension. […] Thirteen days after the cell inoculation, the tumor volume was analyzed using bioluminescence signal from FaDu-Luc cells. […] The bioluminescence signal was monitored using the IVIS […] series (PerkinElmer, Waltham, MA), consisting of a highly sensitive, cooled chargecoupled device camera. […] Data were analyzed using total photon flux emission (photons/second) in the ROIs. The total photon flux emission was calculated in accordance with the following calculation formulae: […]

Assay [2] deals with KPL-4 subcutaneous xenograft. As to the kind of experiment: KPL-4 xenograft model as monotherapy (FIG. 12). The assay is classed as in vivo, nude mice. The protocol:
A human HER-2 positive breast cancer cell line KPL-4, which had been cultured in a DMEM containing 10% FBS, and penicillin-streptomycin, was adjusted to a concentration of 1×10^8 cells/mL with Hanks' Balanced Salt Solution to prepare a cell suspension. The cell suspension was inoculated in a volume of 100 μL into a subcutaneous part of a right flank of nude mice, 8 weeks of ages (CAnN.Cg-Foxnlnu/CrlCrlj, female, Charles River Laboratories Japan Inc.). Eleven days after cell inoculation (Day 1), the shortest diameter and the longest diameter of a tumor in each mouse were measured by using an electronic digital caliper (Digimatic™ caliper, Mitutoyo Corporation), so as to calculate the volume of the tumor in accordance with the following calculation formulae: […]
On the basis of the volumes of tumors obtained on Day 1, the mice were grouped such that averages of the tumor volumes were substantially equal among the groups. The experiment was conducted on groups each consisting of six mice. The test compound was dissolved in DMSO and a solution was stored in the freezer before use. Immediately before the administration, the stock solution was diluted with saline. The test compound in saline was intravenously once-weekly administered at 20 μg/kg, 60 μg/kg, or 180 μg/kg for 2 weeks (on Day 1 and Day 8).

Assay [3] relates to human bladder carcinoma cell line UM-UC-3. Nature of the assay: Bladder carcinoma cell line growth inhibition assay, UM-UC-3. The assay is classed as cell-based. The following applies: UMUC3, 72 h, 3 days incubation, CellTiter-Glo 2.0. The protocol:
(§1) In this assay, the growth inhibitory activity of Compound (1) in human bladder carcinoma cell lines RT4, RT112/84, and UM-UC-3 was measured. RT4 and RT112/84 cells were maintained in a RPMI-1640 (FUJIFILM Wako Pure Chemical Corporation, 189-02025) medium containing 10% fetal bovine serum (FBS: SIGMA Life Science, 172012-500ML), and penicillin and streptomycin (FUJIFILM Wako Pure Chemical Corporation, 168-23191) in a 5% CO2 incubator (37° C.). UM-UC-3 cells were maintained in an E-MEM (FUJIFILM Wako Pure Chemical Corporation, 051-07615) medium containing 10% FBS, 1 mM Sodium Pyruvate (FUJIFILM Wako Pure Chemical Corporation, 190-14881), and penicillin and streptomycin in a 5% CO2 incubator (37° C.). To each well of a 96 well plate (Coming, 3904), 90 μL of each cell suspension adjusted to a concentration of 5.55×10^3 cells/mL (RT4 or UM-UC-3) or 3.33×10^4 cells/mL (RT112/84) with the culture medium was added, and the cells were incubated overnight in a 5% CO2 incubator (37° C.). On the next day, 10 μL of Compound (1) in three-fold dilution series suspended in the culture medium was added to each well, and the resultant was incubated for 3 days in a 5% CO2incubator (37° C.). Then, cell viability was determined by CellTiter-Glo® 2.0 Assay (Promega Corporation, G9243) with ARVO-X4 Multimode Plate Reader (Perkin-Elmer, Wellesley, MA). […]

Assay [4] has as its system human bladder carcinoma cell line RT4. As to the kind of experiment: Bladder carcinoma cell line growth inhibition assay, RT4. The assay is classed as cell-based. The following applies: 72 h, 3 days incubation, CellTiter-Glo 2.0. The protocol:
as §1

The subject of assay [5] is human angiosarcoma CTG-2041 tumor fragments. Nature of the assay: CTG-2041 xenograft as monotherapy (FIG. 17). The assay is classed as in vivo, mice. The following applies: 100 μg/kg i.v. Day 1 and Day 8. As to the method:
Tumor fragments of human angiosarcoma CTG-2041 were implanted s.c. in the left flank of female mice. Tumor growth was monitored twice a week using digital caliper, so as to calculate the volume of the tumor in accordance with the following calculation formula: […]
When the volume of tumors reached approximately 200 mm^3, animals are matched by tumor volume into treatment or control groups and dosing initiated on Day 1. Each group was consisted with five mice. Compound (1) was dissolved in DMSO and a solution was stored in the freezer before use. Compound (1) (100 μg/kg) diluted in saline and intravenously injected on Day 1 and Day 8.

For a further assay, the system named is B-16 melanoma cells. The following applies: among natural Halichondrin compounds; cited from earlier work.

Take `C=C1C[C@@H]2CC[C@@]34C[C@H]5O[C@H]6[C@@H](O3)[C@H]3O[C@H](CC[C@@H]3O[C@H]6C5O4)CC(=O)O[C@@H]3[C@@H](C)[C@@H]4O[C@@H]5C[C@]6(C[C@@H]7O[C@]8(C[C@H](C)[C@@H]9O[C@H](CN)[C@H](O)C[C@@H]9O8)C[C@H](C)[C@@H]7O6)O[C@@H]5C[C@@H]4O[C@H]3C[C@H]3O[C@@H](CC[C@@H]1O2)C[C@@H](C)C3=C` (stereo in doubt) [Compound (1)]: the “Tumor Regression (%)” value in assay [1] (0.09 mg/kg i.v. day 1 and 8 + radiation 18 Gy day 4 and 11) stood at 97%; in assay [1] (0.09 mg/kg i.v. day 1 and 8, without radiation) it was 0%. Moreover, the antitumor effect entry in assay [2] (60 μg/kg i.v. Day 1 and Day 8) is recorded as “tumor regression”; in assay [2] (180 μg/kg i.v. Day 1 and Day 8) it was “tumor regression”. In addition, the “xenograft tumors on Day 15” value in assay [2] (180 μg/kg i.v. Day 1 and Day 8) is recorded as “completely eradicated the xenograft tumors in all mice”. In addition, the 50% inhibitory concentration (IC50) in assay [3] came out at 0.512 nM; in assay [4] it was 0.11 nM. For the same compound, the antitumor activity result in assay [5] is on record as “tumor regression”.

For the compound `C=C1C[C@@H]2CC[C@@]34C[C@H]5O[C@H]6[C@@H](O3)[C@H]3O[C@H](CC[C@@H]3O[C@H]6[C@H]5O4)CC(=O)O[C@@H]3[C@@H](C)[C@@H]4O[C@@H]5C[C@]6(C[C@@H]7O[C@]8(C[C@H](C)[C@@H]9O[C@H]([C@@H](O)C[C@@H](O)CO)C[C@@H]9O8)C[C@H](C)[C@@H]7O6)O[C@@H]5C[C@@H]4O[C@H]3C[C@H]3O[C@@H](CC[C@@H]1O2)C[C@@H](C)C3=C` [Halichondrin B, reference compound], the “anti-tumor activities against B-16 melanoma cells in vitro” value in the assay on B-16 melanoma cells is “strongest anti-tumor activities”.
